Measured values: US20210029993A1, “SPATIAL INHIBITORS, DETERRENTS AND REPELLENTS FOR MOSQUITOES AND MIDGES” (BEDOUKIAN RESEARCH, INC., priority 2005, published 2021)

Tests used:
Type in all cases: in vivo
[1] = test system: female mosquitoes (Aedes aegypti); test: Mosquitoes flying test (Plexiglas module, mosquitoes flying within the apparatus); conditions: for Flying Relative To Control: control = 1, higher = more inhibitor activity; for spatial inhibitor activity for mosquitoes (flying tests, FIGS. 2 and 4), in words: flying relative to control
Description: The test was conducted at 0900-2100 hours in a walk-in incubator (26° C., 63-80% RH) illuminated by fluorescent lights. Mosquitoes were tested in a two-piece Plexiglas module designed to assess their response to feeding deterrents. The bottom piece of the module was 40×7×4-cm hollow platform supporting six circular wells (diameter=3.8 cm, depth=6 mm). Water (40° C.) flowed through the central cavity of the platform at a rate of 215 ml/min. The top piece of the module consisted of six 4.5×4.0×5.0 cm chambers, the floors of which were fitted with a sliding door positioned over a circular opening 3.5 cm in diameter. Mosquitoes were introduced through an aperture 1 cm in diameter on the front wall of the chambers. For each test, five female mosquitoes (Aedes aegypti) were aspirated into each of five chambers of the top module piece and the apertures were plugged with corks wrapped in plastic film. The wells on the bottom piece of the module were filled with 7 ml of 10% sucrose solution containing ATP (2.9 mg/ml). To each well, 75 μl of green dye (McCormick Food, Hunt Valley, Md.) were added so that those mosquitoes imbibing the sugar solution could be identified when crushed at the end of the tests. Each membrane received 50 ul of acetone or experimental compound solution, applied to 9.6 cm^2 circular area on 0.1 mm-thick membranes made of nylon mesh in a silicone matrix. The membranes were then placed over each well in contact with the sugar solution.
The circular openings on the floor of each chamber of the top piece of the module were aligned with each membrane-covered well of the bottom piece. The sliding floors of the chambers were then opened allowing mosquitoes access to the membranes. The number of mosquitoes landing on the membranes, and those flying within the apparatus, were recorded each minute for five minutes. After five minutes, any mosquitoes remaining on the membranes were removed with a metal wire, and the door of the floor of each chamber was closed. The top piece of the module was then placed into a freezer for 20 minutes. In the test designed to assess feeding, mosquitoes were removed from the frozen module, crushed on white paper towels, and examined for the presence of green dye to indicate that feeding had occurred. The proportions of mosquitoes feeding per trial were analyzed using a standard generalized linear model with a logit link. Landing and flying scores are repeated measures; five reading were obtained for groups of five mosquitoes. Thus, to maintain independence among the data, the five readings were summed, and then the sums divided by 25 (the maximum score in each category) to create proportions of mosquitoes landing and flying. The proportions were then transferred using the standard variance stabilizing transformation for proportions (sin^−1 √y, where y is the proportion), and analyzed using ANOVA (Analysis of Variables)
In Table 2, weight percent (wt %) refers to the weight of the deterring/repelling/inhibiting compound, or combination of compounds, in the composition used in the tests. […] The weight ratio of the compounds in the combination of compounds is given in parentheses in the “Compound(s)” column of Table 2.

[2] = test system: female biting midges (Culicoides impunctatus); test: Biting midges feeding test (Plexiglas module, treated membrane); conditions: control = 1.00, lower = more repellent
Description: The following tests are employed to illustrate the efficacy of the compounds of this disclosure to effectively act as biting midge deterrents, repellents or as spatial inhibitors for biting midges. […] Biting midges are tested in a two-piece Plexiglas module designed to assess their response to feeding deterrents. […] Water (40° C.) flows through the central cavity of the platform at a rate of 215 ml/min. The top piece of the module consists of six 4.5×4.0×5.0 cm chambers, the floors of which are fitted with a sliding door positioned over a circular opening 3.5 cm in diameter. Biting midges are introduced through an aperture 1 cm in diameter on the front wall of the chambers. For each test, five female biting midges (Culicoides impunctatus) are aspirated into each of five chambers of the top module piece and the apertures are plugged with corks wrapped in plastic film. […] To each well, 77.5 μl of green dye (McCormick Food, Hunt Valley, Md.) are added so that those biting midges imbibing the sugar solution can be identified when crushed at the end of the tests. Each membrane receives 50 μl of acetone or experimental compound solution, applied to 9.6 cm^2 circular area on 0.1 mm-thick membranes made of nylon mesh in a silicone matrix. The membranes are then placed over each well in contact with the sugar solution. The circular openings on the floor of each chamber of the top piece of the module are aligned with each membrane-covered well of the bottom piece. The sliding floors of the chambers are then opened allowing biting midges access to the membranes. The number of biting midges landing on the membranes, and those flying within the apparatus, are recorded each minute for five minutes. After five minutes, any biting midges remaining on the membranes are removed with a metal wire, and the door of the floor of each chamber is closed. The top piece of the module is then placed into a freezer for 20 minutes. In the test designed to assess feeding, biting midges are removed from the frozen module, crushed on white paper towels, and examined for the presence of green dye to indicate that feeding had occurred. The proportions of biting midges feeding per trial are analyzed using a standard generalized linear model with a logit link. Landing and flying scores are repeated measures; five readings are obtained for groups of five biting midges. Thus, to maintain independence among the data, the five readings are summed, and then the sums divided by 25 (the maximum score in each category) to create proportions of biting midges landing and flying. The proportions are then transferred using the standard variance stabilizing transformation for proportions (sin^−1 √y, where y is the proportion), and analyzed using ANOVA (Analysis of Variables). In Table 4, weight percent (wt %) refers to the weight of the deterring/repelling/inhibiting compound, or combination of compounds, in the composition used in the tests. […] The weight ratio of the compounds in the combination of compounds is given in parentheses in the “Compound(s)” column of Table 4.

biting midges = test: Spatial inhibition of biting midges, outdoor trap catch; conditions: control trap = 100% catch, lower = more inhibition
Description: Two grams of test compound is absorbed onto pieces of absorbent material. These pieces of absorbent material (fragrance release material from Rhopore Inc.) containing absorbed test compound are then placed in a stream of CO2 and r-octenol being released from a biting midges biting midge trap designed to attract biting midges. The test are rotated over a period of 2-5 days in such a manner that both control (trap without test compound) and test compound are tested an equal number of times in each trap employed. The number of biting midges caught in the traps with test compounds is compared to the number of biting midges caught in the trap with no test compound material present. […] Thus, a lowered percentage is indicative of the increasing ability of the test compounds to inhibit the ability of the biting midges sense the target. In Table 6, weight percent (wt %) refers to the weight of the deterring/repelling/inhibiting compound, or combination of compounds, in the composition used in the tests. In the “Percent Caught Relative to Control” column in Table 6, a lower percentage is indicative of the increasing ability of the test compounds to inhibit the ability of the biting midges to sense the target. The weight ratio of the compounds in the combination of compounds is given in parentheses in the “Compound(s)” column of Table 6.

[3] = 90 wt % compound(s) in composition
[4] = 77.5 wt % compound(s) in composition
[5] = 87.5 wt % compound(s) in composition
[6] = 95 wt % compound(s) in composition
[7] = 80 wt % compound(s) in composition
[8] = 82.5 wt % compound(s) in composition
[9] = 85 wt % compound(s) in composition
[10] = 92.5 wt % compound(s) in composition

CC1=CCC(C(C)(C)O)CC1 (stereo not drawn) [α-terpineol]
Flying Relative To Control [1, 3]: 1.15
spatial inhibitor activity for mosquitoes (flying tests, FIGS. 2 and 4), in words [1]: particularly effective as spatial inhibitors for mosquitoes
Feeding Relative To Control [2, 3]: 0.80
Percent Caught Relative To Control (biting midges; [3]): 16%

C=C(C)[C@@H]1CC=C(C)[C@@H](O)C1 (relative stereo) [trans-Carveol]
Flying Relative To Control [1, 4]: 1.55
Feeding Relative To Control [2, 4]: 0.63
Percent Caught Relative To Control (biting midges; [4]): 22%

(+) Limonene oxide
Flying Relative To Control [1, 5]: 0.90
Feeding Relative To Control [2, 5]: 0.77
Percent Caught Relative To Control (biting midges; [5]): 19%

C=CC(C)(CCC=C(C)C)OC(C)=O (centres unmarked) [Linaloyl acetate]
Flying Relative To Control [1, 6]: 1.3
spatial inhibitor activity for mosquitoes (flying tests, FIGS. 2 and 4), in words [1]: particularly effective as spatial inhibitors for mosquitoes
Feeding Relative To Control [2, 6]: 0.72
Percent Caught Relative To Control (biting midges; [6]): 16%

CC1=CCC(O)(C(C)C)CC1 (centres unmarked) [Terpinen-4-ol]
Flying Relative To Control [1, 3]: 1.7
spatial inhibitor activity for mosquitoes (flying tests, FIGS. 2 and 4), in words [1]: particularly effective as spatial inhibitors for mosquitoes
Feeding Relative To Control [2, 3]: 0.74
Percent Caught Relative To Control (biting midges; [3]): 21%

CC(C)=CCCC(C)CCO (centres unmarked) [Citronellol]
Flying Relative To Control [1, 5]: 1.55
spatial inhibitor activity for mosquitoes (flying tests, FIGS. 2 and 4), in words [1]: particularly effective as spatial inhibitors for mosquitoes
Feeding Relative To Control [2, 5]: 0.64
Percent Caught Relative To Control (biting midges; [5]): 12%

C=C[C@@](C)(O)CCC=C(C)C [d-Linalool, reference compound]
Flying Relative To Control [1, 7]: 1.25
Feeding Relative To Control [2, 7]: 0.31
Percent Caught Relative To Control (biting midges; [7]): 6%

l-Carvone
Flying Relative To Control [1, 8]: 1.75
spatial inhibitor activity for mosquitoes (flying tests, FIGS. 2 and 4), in words [1]: particularly effective as spatial inhibitors for mosquitoes
Feeding Relative To Control [2, 8]: 0.62
Percent Caught Relative To Control (biting midges; [8]): 12%

CC(C)[C@@H]1CC[C@@H](C)C(=O)C1 [Tetrahydrocarvone]
Flying Relative To Control [1, 6]: 1.65
Feeding Relative To Control [2, 6]: 0.72
Percent Caught Relative To Control (biting midges; [6]): 25%

CC(C)=CCCC(C)=CC=O [Citral]
Flying Relative To Control [1, 8]: 2.0
spatial inhibitor activity for mosquitoes (flying tests, FIGS. 2 and 4), in words [1]: particularly effective as spatial inhibitors for mosquitoes
Feeding Relative To Control [2, 8]: 0.60
Percent Caught Relative To Control (biting midges; [8]): 12%

Cc1ccc(C(C)(C)O)cc1
Flying Relative To Control [1, 7]: 1.0
spatial inhibitor activity for mosquitoes (flying tests, FIGS. 2 and 4), in words [1]: particularly effective as spatial inhibitors for mosquitoes
Feeding Relative To Control [2, 7]: 0.73
Percent Caught Relative To Control (biting midges; [7]): 25%

CC(=O)OCCC(C)CCC=C(C)C (centres unmarked) [Citronellyl acetate]
Flying Relative To Control [1, 7]: 1.5
spatial inhibitor activity for mosquitoes (flying tests, FIGS. 2 and 4), in words [1]: particularly effective as spatial inhibitors for mosquitoes
Feeding Relative To Control [2, 7]: 0.67
Percent Caught Relative To Control (biting midges; [7]): 25%

CC(=O)OC/C=C(/C)CCC=C(C)C [Neryl acetate]
Flying Relative To Control [1, 4]: 2.0
spatial inhibitor activity for mosquitoes (flying tests, FIGS. 2 and 4), in words [1]: particularly effective as spatial inhibitors for mosquitoes
Feeding Relative To Control [2, 4]: 0.72
Percent Caught Relative To Control (biting midges; [4]): 20%

CC(=O)OC/C=C(\C)CCC=C(C)C [Geranyl acetate]
Flying Relative To Control [1, 9]: 1.75
spatial inhibitor activity for mosquitoes (flying tests, FIGS. 2 and 4), in words [1]: particularly effective as spatial inhibitors for mosquitoes
Feeding Relative To Control [2, 9]: 0.64
Percent Caught Relative To Control (biting midges; [9]): 29%

C=C(C)[C@H]1CC=C(C)C(=O)C1 [d-Carvone]
Flying Relative To Control [1, 4]: 1.95
spatial inhibitor activity for mosquitoes (flying tests, FIGS. 2 and 4), in words [1]: particularly effective as spatial inhibitors for mosquitoes
Feeding Relative To Control [2, 4]: 0.65
Percent Caught Relative To Control (biting midges; [4]): 13%

C=C(C)C1CCC2(C)OC2C1 (single isomer, unassigned; (-)) [(−) Limonene oxide]
Flying Relative To Control [1, 10]: 1.1
Feeding Relative To Control [2, 10]: 0.75
Percent Caught Relative To Control (biting midges; [10]): 16%

C=C(C)[C@@H]1CC=C(C)[C@H](O)C1 (relative stereo) [cis-Carveol]
Flying Relative To Control [1, 9]: 1.35
Feeding Relative To Control [2, 9]: 0.67
Percent Caught Relative To Control (biting midges; [9]): 24%
